Patent US20240309014A1, “MACROCYCLIC COMPOUNDS AND USES THEREOF” (President and Fellows of Harvard College, priority 2017, published 2024)

Key:
[1] = tested on: KPL-4 subcutaneous xenograft; experiment: KPL-4 subcutaneous xenograft model in combination with trastuzumab; type: in vivo, nude mice
Procedure: A human HER-2 positive breast cancer cell line KPL-4, which had been cultured in an RPMI-1640 medium containing 10% FBS, and penicillin and streptomycin, was adjusted to a concentration of 1×10^8 cells/mL with Hank's Balanced Salt Solution to prepare a cell suspension. The cell suspension was inoculated in a volume of 100 μL into a subcutaneous part of a right flank of nude mice, 7 weeks of ages (CAnN.Cg-Foxnlnu/CrlCrlj, female, Charles River Laboratories Japan, Inc.). Sixteen days after the cell inoculation, the shortest diameter and the longest diameter of a tumor in each mouse were measured by using an electronic digital caliper (Digimatic™ caliper, Mitutoyo Corporation), so as to calculate the volume of the tumor in accordance with the following calculation formulae: […]
On the basis of the volumes of tumors obtained on the first day of administration, the mice were grouped such that averages of the tumor volumes were substantially equal among the groups. The experiment was conducted on groups each consisting of 6 mice. Each test compound was dissolved in DMSO and a solution was stored at the freezer before use. Immediately before the administration, the stock solution was diluted in saline.

[2] = tested on: human bladder carcinoma cell line UM-UC-3; experiment: Bladder carcinoma cell line growth inhibition assay, UM-UC-3; type: cell-based; conditions: UMUC3, 72 h, 3 days incubation, CellTiter-Glo 2.0
Procedure: In this assay, the growth inhibitory activity of Compound (1) in human bladder carcinoma cell lines RT4, RT112/84, and UM-UC-3 was measured. RT4 and RT112/84 cells were maintained in a RPMI-1640 (FUJIFILM Wako Pure Chemical Corporation, 189-02025) medium containing 10% fetal bovine serum (FBS: SIGMA Life Science, 172012-500ML), and penicillin and streptomycin (FUJIFILM Wako Pure Chemical Corporation, 168-23191) in a 5% CO2 incubator (37° C.). UM-UC-3 cells were maintained in an E-MEM (FUJIFILM Wako Pure Chemical Corporation, 051-07615) medium containing 10% FBS, 1 mM Sodium Pyruvate (FUJIFILM Wako Pure Chemical Corporation, 190-14881), and penicillin and streptomycin in a 5% CO2 incubator (37° C.). To each well of a 96 well plate (Coming, 3904), 90 μL of each cell suspension adjusted to a concentration of 5.55×10^3 cells/mL (RT4 or UM-UC-3) or 3.33×10^4 cells/mL (RT112/84) with the culture medium was added, and the cells were incubated overnight in a 5% CO2 incubator (37° C.). On the next day, 10 μL of Compound (1) in three-fold dilution series suspended in the culture medium was added to each well, and the resultant was incubated for 3 days in a 5% CO2incubator (37° C.). Then, cell viability was determined by CellTiter-Glo® 2.0 Assay (Promega Corporation, G9243) with ARVO-X4 Multimode Plate Reader (Perkin-Elmer, Wellesley, MA). […]

[3] = tested on: α-SMA-positive CAFs in FaDu tumor; experiment: Effect on α-SMA-positive CAFs in the FaDu subcutaneous model (FIG. 14); type: in vivo, nude mice
Procedure: A human squamous cell carcinoma of the head and neck (SCCHN) cell line FaDu, which had been cultured in an RPMI-1640 medium containing 10% FBS, and penicillin-streptomycin (culture medium), was adjusted to a concentration of 5×10^7 cells/mL with culture medium to prepare a cell suspension. The cell suspension was inoculated in a volume of 100 μL into a subcutaneous part of a right flank of nude mice, 6 weeks of ages (CAnN.Cg-Foxnlnu/CrlCrlj, female, Charles River Laboratories Japan, Inc.). Ten days after cell inoculation, the mice were grouped such that averages of the tumor volumes were substantially equal among the groups. The experiment was conducted on groups each consisting of 5 mice. Each test compound was dissolved in DMSO and a solution was stored in the freezer before use. Immediately before the administration, the stock solution was diluted with saline. The test compound in saline was intravenously administered at 20 μg/kg, 60 μg/kg, or 180 μg/kg. […] The area of α-SMA-positive region in the whole tumor was quantified by counting the α-SMA-positive objects using inform 2 software (PerkinElmer Inc.) Area of the tumor region was measured by assessing the hematoxylin-staining area using inform 2 software (PerkinElmer Inc.). […] A suppression rate of the α-SMA- positive area of the test compound-dosing group was calculated with the below formula: […]

L-1210 Leukemia = conditions: cited from earlier work

C=C1C[C@@H]2CC[C@@]34C[C@H]5O[C@H]6[C@@H](O3)[C@H]3O[C@H](CC[C@@H]3O[C@H]6C5O4)CC(=O)O[C@@H]3[C@@H](C)[C@@H]4O[C@@H]5C[C@]6(C[C@@H]7O[C@]8(C[C@H](C)[C@@H]9O[C@H](CN)[C@H](O)C[C@@H]9O8)C[C@H](C)[C@@H]7O6)O[C@@H]5C[C@@H]4O[C@H]3C[C@H]3O[C@@H](CC[C@@H]1O2)C[C@@H](C)C3=C (stereo in doubt) [Compound (1)]
Tumor Regression (%) ([1]; 0.09 mg/kg i.v. + trastuzumab 10 mg/kg): 83%
Tumor Regression (%) ([1]; 0.09 mg/kg i.v., without trastuzumab): 43%
Tumor Regression (%) ([1]; 0.18 mg/kg i.v. + trastuzumab 10 mg/kg): 100%
Tumor Regression (%) ([1]; 0.18 mg/kg i.v., without trastuzumab): 87%
IC50 [2]: 0.512 nM
α-SMA positive area ([3]; single i.v. dose of 180 μg/kg, Day 6): significantly reduced the α-SMA positive area
α-SMA positive area ([3]; single i.v. dose of 60 and 180 μg/kg, Day 3): significantly reduced the α-SMA positive area

C=C1C[C@@H]2CC[C@@]34C[C@H]5O[C@H]6[C@@H](O3)[C@H]3O[C@H](CC[C@@H]3O[C@H]6[C@H]5O4)CC(=O)O[C@@H]3[C@@H](C)[C@@H]4O[C@@H]5C[C@]6(C[C@@H]7O[C@]8(C[C@H](C)[C@@H]9O[C@H]([C@@H](O)C[C@@H](O)CO)C[C@@H]9O8)C[C@H](C)[C@@H]7O6)O[C@@H]5C[C@@H]4O[C@H]3C[C@H]3O[C@@H](CC[C@@H]1O2)C[C@@H](C)C3=C [Halichondrin B, reference compound]
activity against L-1210 Leukemia in vivo (L-1210 Leukemia): highly active
